Counter-ions that a name gives are not always drawn.
Experiments:
[1] = tested on: HepG2 cells originating from human liver cancer; assay: EPO production in HepG2 cells (EPO ELISA of culture supernatant, 4% oxygen, 48 hrs); assay type: cell-based; settings: test compound 3 μM, oxygen 4%, non-stimulated state = 100%, read-out: EPO production amount, % of control (3 μM)
Method: HepG2 cells originating from human liver cancer were seeded at a density of 1×10^4 cells per well on a 24-well plate by using minimum essential medium (MEM, manufactured by Sigma) comprising 10% bovine fetal serum. Next day, the medium was exchanged with Dulbecco's modified eagle medium (DMEM, manufactured by Sigma) comprising 10% bovine fetal serum lacking phenol red. Then, the test compound dissolved in DMSO was added thereto to obtain the final concentration of 3 μM or 10 μM while having 400 μl of the medium per well. The cells were incubated for 48 hrs in a CO2 incubator which had been adjusted to have oxygen concentration of 4%, followed by collecting the culture supernatant. The EPO concentration in the culture supernatant was immediately measured by using EPO ELISA kit (manufactured by Roche Diagnostics K.K.). Specific procedures were carried out according to the manufacturer's protocol included in the kit.
When EPO production amount in non-stimulated state, i.e., without addition of any compound, was 100%, the EPO production amount induced by each compound was calculated (% of control).

[2] = tested on: K562 cells, human proerythroblast cells; assay: Hemoglobin production in K562 cells (fluorescence of the porphyrin ring); assay type: cell-based; settings: 144 h, test compound 6 μM, 3+3 days, non-stimulated state = 100%, read-out: production amount of hemoglobin, % of control (6 μM)
Method: K562 cells (obtained from ATCC), which are human proerythroblast cells, were seeded at a density of 1×10^5 cells/1 mL on a 24-well plate by using complete medium (RPMI-1640 medium comprising 10% bovine fetal serum). After adding the test compound having 1000× concentration (1 μL), the cells were incubated for three days in a CO2 incubator (37° C., 5% CO2). After exchanging the medium, the cells were further incubated for three days. Then, the cells were collected and counted. After adjusting them to have 3×10^5 cells, the amount of hemoglobin produced in the cells was determined by measuring fluorescence of the porphyrin ring. Specifically, the cells which had been collected by centrifugation were suspended in 2 M oxalic acid solution (500 μL) and boiled for 30 minutes under heating. After cooling the cells, the fluorescence intensity was measured by Fluorescence micro plate reader (Spectra MAX GeminiEM, manufactured by Molecular Devices Corporation) ([…]). When hemoglobin amount in non-stimulated state, i.e., without addition of any compound, was 100%, the production amount of hemoglobin induced by each compound was calculated (% of control).

Row | SMILES | activity at 3 µM [1] [%] | activity at 6 µM [2] [%]
1 | CC(=O)N1c2ccc(C(N)=O)cc2[C@H](Oc2ccc(F)cc2)C[C@@H]1C (relative stereo) [Compound 54, cis-1-acetyl-4-(4-fluorophenoxy)-2-methyl-1,2,3,4-tetrahydroquinoline-6-carboxamide] | 148 | 186
2 | CC(=O)N1c2cc(F)ccc2[C@H](Oc2ccc(F)cc2)C[C@@H]1C (relative stereo) [Compound 56, cis-1-acetyl-7-fluoro-4-(4-fluorophenoxy)-2-methyl-1,2,3,4-tetrahydroquinoline] | 213 | 119
3 | CC(=O)N1c2ccccc2[C@H](Oc2ccc(O)cc2)C[C@@H]1C (relative stereo) [Compound 57, cis-1-acetyl-4-(4-hydroxyphenoxy)-2-methyl-1,2,3,4-tetrahydroquinoline] | 251 | 221
4 | CC(=O)N1c2ccccc2[C@H](Oc2cc(F)cc(F)c2)C[C@@H]1C (relative stereo) [Compound 62, cis-1-acetyl-4-(3,5-difluorophenoxy)-2-methyl-1,2,3,4-tetrahydroquinoline] | 193 | 168
5 | CC(=O)N1CCN(c2ccc(N[C@@H]3C[C@H](C)N(C(C)=O)c4ccccc43)cc2)CC1 (relative stereo) [Compound 77, cis-1-acetyl-4-{[4-(4-acetylpiperazinyl)phenyl]amino}-2-methyl-1,2,3,4-tetrahydroquinoline] | 221 | 120
6 | CC(=O)N1c2ccccc2[C@H](Nc2ccc(N3CCN(S(C)(=O)=O)CC3)cc2)C[C@@H]1C (relative stereo) [Compound 78, cis-1-acetyl-4-{[4-(4-methanesulfonylpiperazinyl)phenyl]amino}-2-methyl-1,2,3,4-tetrahydroquinoline] | 217 | 210
7 | CC(=O)N1CCN(c2ccc3c(c2)[C@H](Nc2ccc(Cl)cc2)C[C@H](C)N3C(C)=O)CC1 (relative stereo) [Compound 79, cis-1-acetyl-6-[(4-acetyl)piperazino]-4-[(4-chlorophenyl)amino]-2-methyl-1,2,3,4-tetrahydroquinoline] | 476 | 186
8 | CC(=O)N1c2ccc(C(N)=O)cc2[C@H](Nc2ccc(CC(=O)O)cc2)C[C@@H]1C (relative stereo) [Compound 105, cis-1-acetyl-4-[(4-carboxymethylphenyl)amino]-2-methyl-1,2,3,4-tetrahydroquinoline-6-carboxamide] | 245 | 358
9 | CC(=O)N1c2ccc(CO)cc2[C@H](Nc2ccc(Cl)cc2)C[C@@H]1C (relative stereo) [Compound 121, cis-1-acetyl-4-[(4-chlorophenyl)amino]-6-hydroxymethyl-2-methyl-1,2,3,4-tetrahydroquinoline] | 222 | 149
10 | CC(=O)N1c2ccccc2C(Nc2ccccc2)CC1C (centres unmarked) [Compound 1, 1-acetyl-2-methyl-4-phenylamino-1,2,3,4-tetrahydroquinoline] | 235 | 575
11 | CCC(=O)N1c2ccccc2C(Nc2ccccc2)CC1C (centres unmarked) [Compound 3, 2-methyl-4-phenylamino-1-propionyl-1,2,3,4-tetrahydroquinoline] | 187 | 912
12 | CC(=O)N1c2ccc(F)cc2C(Nc2ccc(F)cc2)CC1C (centres unmarked) [Compound 5, 1-acetyl-6-fluoro-4-[(4-fluorophenyl)amino]-2-methyl-1,2,3,4-tetrahydroquinoline] | 205 | 245
13 | CC(=O)N1c2ccccc2C(Nc2ccc(Cl)cc2)CC1C (centres unmarked) [Compound 8, 1-acetyl-4-[(4-chlorophenyl)amino]-2-methyl-1,2,3,4-tetrahydroquinoline] | 248 | 412
14 | CC(=O)N1c2ccccc2C(Nc2ccc(C#N)cc2)CC1C (centres unmarked) [Compound 9, 1-acetyl-4-[(4-cyanophenyl)amino]-2-methyl-1,2,3,4-tetrahydroquinoline] | 405 | 406
15 | COc1ccc(NC2CC(C)N(C(C)=O)c3ccccc32)cc1 (centres unmarked) [Compound 10, 1-acetyl-4-[(4-methoxyphenyl)amino]-2-methyl-1,2,3,4-tetrahydroquinoline] | 172 | 409
16 | COc1cccc(NC2CC(C)N(C(C)=O)c3ccccc32)c1 (centres unmarked) [Compound 11, 1-acetyl-4-[(3-methoxyphenyl)amino]-2-methyl-1,2,3,4-tetrahydroquinoline] | 163 | 361

Row | SMILES | activity at 3 µM [1] [%] | activity at 6 µM [2] [%]
17 | COc1ccccc1NC1CC(C)N(C(C)=O)c2ccccc21 (centres unmarked) [Compound 12, 1-acetyl-4-[(2-methoxyphenyl)amino]-2-methyl-1,2,3,4-tetrahydroquinoline] | 197 | 398
18 | CC(=O)N1c2ccc(Br)cc2C(Nc2ccccc2)CC1C (centres unmarked) [Compound 13, 1-acetyl-6-bromo-2-methyl-4-phenylamino-1,2,3,4-tetrahydroquinoline] | 229 | 365
19 | CC(=O)N1c2ccc(C#N)cc2C(Nc2ccccc2)CC1C (centres unmarked) [Compound 14, 1-acetyl-6-cyano-2-methyl-4-phenylamino-1,2,3,4-tetrahydroquinoline] | 257 | 440
20 | CC(=O)N1c2ccccc2C(Nc2ccc(F)cc2)CC1C (centres unmarked) [Compound 15, 1-acetyl-4-[(4-fluorophenyl)amino]-2-methyl-1,2,3,4-tetrahydroquinoline] | 348 | 409
21 | CC(=O)N1c2ccccc2C(Nc2cccc(F)c2)CC1C (centres unmarked) [Compound 16, 1-acetyl-4-[(3-fluorophenyl)amino]-2-methyl-1,2,3,4-tetrahydroquinoline] | 288 | 416
22 | CC(=O)N1c2ccccc2C(Nc2ccc(Oc3ccccc3)cc2)CC1C (centres unmarked) [Compound 17, 1-acetyl-4-[(4-phenoxyphenyl)amino]-2-methyl-1,2,3,4-tetrahydroquinoline] | 172 | 517
23 | CC(=O)N1c2ccccc2C(Nc2ccc(OC(C)C)cc2)CC1C (stereo not drawn) [Compound 18, cis-1-acetyl-4-[(4-isopropoxyphenyl)amino]-2-methyl-1,2,3,4-tetrahydroquinoline.hydrochloride] | 178 | 374
24 | CC(=O)N1c2ccccc2C(Nc2ccc(N3CCOCC3)cc2)CC1C (stereo not drawn) [Compound 19, cis-1-acetyl-2-methyl-4-[(4-morpholinophenyl)amino]-1,2,3,4-tetrahydroquinoline.hydrochloride] | 191 | 284
25 | CC(=O)N1c2ccccc2C(Nc2ccc(N(C)C)cc2)CC1C (centres unmarked) [Compound 20, 1-acetyl-4-[(4-N,N-dimethylaminophenyl)amino]-2-methyl-1,2,3,4-tetrahydroquinoline.2 hydrochloride] | 174 | 117
26 | CC(=O)N1c2ccccc2C(Nc2ccc(C(C)C)cc2)CC1C (centres unmarked) [Compound 21, 1-acetyl-4-[(4-isopropylphenyl)amino]-2-methyl-1,2,3,4-tetrahydroquinoline] | 231 | 301
27 | CC(=O)N1c2ccccc2C(Nc2ccc(CO)cc2)CC1C (centres unmarked) [Compound 38, 1-acetyl-4-[(4-hydroxymethylphenyl)amino]-2-methyl-1,2,3,4-tetrahydroquinoline] | 201 | 190
28 | CC(=O)N1c2ccccc2C(Nc2ccc(NS(C)(=O)=O)cc2)CC1C (centres unmarked) [Compound 39, 1-acetyl-4-[(4-methanesulfonylamidephenyl)amino]-2-methyl-1,2,3,4-tetrahydroquinoline] | 131 | 327
29 | CC(=O)N1c2ccc(N3CCOCC3)cc2C(Nc2ccc(Cl)cc2)CC1C (centres unmarked) [Compound 40, 1-acetyl-4-[(4-chlorophenyl)amino]-2-methyl-6-morpholino-1,2,3,4-tetrahydroquinoline.hydrochloride] | 144 | 256
30 | CC(=O)N1c2ccc(C(=O)O)cc2C(Nc2ccc(Cl)cc2)CC1C (centres unmarked) [Compound 42, 1-acetyl-4-[(4-chlorophenyl)amino]-2-methyl-1,2,3,4-tetrahydroquinoline-6-carboxylic acid] | 102 | 303
31 | CC(=O)N1c2cc(N3CCOCC3)ccc2C(Nc2ccc(Cl)cc2)CC1C (centres unmarked) [Compound 44, 1-acetyl-4-[(4-chlorophenyl)amino]-2-methyl-7-morpholino-1,2,3,4-tetrahydroquinoline] | 301 | 162
